Literature values, collected in US20100029729A1, “COMPOUNDS” (priority 2008, published 2010).

How the values were obtained:
circulating lymphocytes = conditions: animals and man
[1] = clinical studies, first 24 hours of treatment

## CCCCCCCCc1ccc(CCC(N)(CO)CO)cc1 [FTY720]
Circulating lymphocytes
  effect on circulating lymphocytes: reduce circulating lymphocytes in animals and man
[1]
  bradycardia: results in bradycardia in the first 24 hours of treatment
